Here are results for one compound from PMC13276840, “Deacetylation of β‑Mannans by Two Complementary Carbohydrate Esterases from the Human Gut Microbe Bacteroides cellulosilyticus” (Biochemistry, 2026).

The target of one test is T1, BcCE7 (Bacteroides cellulosilyticus, UniProt E2NDM1).
T1 construct: gene BACCELL_02381; N-terminal signal peptide removed, His tag (removal not mentioned), pET28a(+), synthetic gene, E. coli BL21 STAR
T1 sequence (E2NDM1 7-414 limits assumed): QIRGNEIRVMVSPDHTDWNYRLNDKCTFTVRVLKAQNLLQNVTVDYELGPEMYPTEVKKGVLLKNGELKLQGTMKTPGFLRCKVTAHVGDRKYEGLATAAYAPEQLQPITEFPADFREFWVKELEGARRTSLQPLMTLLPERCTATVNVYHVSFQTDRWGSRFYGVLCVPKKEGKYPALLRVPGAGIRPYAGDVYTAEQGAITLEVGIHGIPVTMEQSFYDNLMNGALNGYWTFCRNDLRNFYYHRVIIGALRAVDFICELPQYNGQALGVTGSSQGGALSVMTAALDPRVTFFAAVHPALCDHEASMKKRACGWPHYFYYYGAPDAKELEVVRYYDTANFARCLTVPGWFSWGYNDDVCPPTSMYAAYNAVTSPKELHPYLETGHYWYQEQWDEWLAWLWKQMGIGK
Put plainly: transacetylation, MALDI-ToF MS. It counts as biochemical. To be noted: acyl acceptor with vinyl acetate donor, […] enzyme, […] sodium phosphate pH […] °C.

For another test, the target named is T2, BcCE25 (Bacteroides cellulosilyticus, UniProt E2NCW7).
T2 construct: gene BACCELL_02125; N-terminal signal peptide removed, His tag (removal not mentioned), pET30a(+), synthetic gene, E. coli BL21 STAR
T2 sequence (E2NCW7 20-263): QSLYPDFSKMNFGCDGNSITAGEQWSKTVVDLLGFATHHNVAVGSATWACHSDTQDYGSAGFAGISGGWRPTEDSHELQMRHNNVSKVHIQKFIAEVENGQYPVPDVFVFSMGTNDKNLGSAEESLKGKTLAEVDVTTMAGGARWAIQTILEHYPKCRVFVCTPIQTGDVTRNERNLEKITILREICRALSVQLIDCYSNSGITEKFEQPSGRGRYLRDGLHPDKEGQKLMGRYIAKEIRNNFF
Put plainly: transacetylation, MALDI-ToF MS and NMR. To be noted: acyl acceptor with vinyl acetate donor, 200 nM enzyme, 10 mM sodium phosphate pH 5.9, 25 °C. It counts as biochemical.

In the case of `OC[C@H]1O[C@@H](O[C@H]2[C@H](O)[C@H](O)[C@H](O[C@H]3[C@H](O)[C@H](O)[C@H](O[C@H]4[C@H](O)[C@H](O)C(O)O[C@@H]4CO)O[C@@H]3CO)O[C@@H]2CO)[C@@H](O)[C@@H](O)[C@@H]1O` (some centres unmarked) [mannotetraose], on BcCE7, the “transacetylation, MALDI-ToF MS” value is “On mannotetraose, BcCE7 transferred mainly one acetyl group”. Further, the “transacetylation, MALDI-ToF MS and NMR” value on BcCE25 was “BcCE25 transferred up to three acetylations”.
